Assay results from publication PMC12866797, “Targeting DESI2 as a Novel Therapeutic Strategy for JAK2‐Mutant Leukemias” (Advanced Science, 2025).

Tests used:
[1] = biological target: T1, DESI2 (Homo sapiens, UniProt Q9BSY9); assay: thermal shift assay; assay type: binding; conditions: 100 µM compound
T1 construct: residues 1-194, pET28a vector, E. coli BL21 (DE3), Ni-NTA purified

[2] = biological target: T1, DESI2; assay: Ub-AMC fluorescence assay, initial rate; assay type: biochemical
[3] = biological target: JOSD1 (Homo sapiens, UniProt Q15040); assay: Ub-Rho fluorescence assay; assay type: biochemical

T1 sequence (Q9BSY9 whole entry, the tested form may be a part): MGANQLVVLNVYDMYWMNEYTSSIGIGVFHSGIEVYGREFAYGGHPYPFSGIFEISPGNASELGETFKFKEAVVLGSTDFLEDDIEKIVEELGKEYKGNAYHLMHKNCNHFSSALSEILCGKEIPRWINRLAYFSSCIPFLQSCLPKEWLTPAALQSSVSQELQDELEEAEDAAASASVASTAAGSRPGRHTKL

dTm [1]: 3.5 °C | IC50 [2]: 0.0473 µM | IC50 [3]: > 10 µM
Compound: N#CN1CC[C@H](C(=O)Nc2nc3cc(-c4ccc5c(c4)OCO5)ccc3s2)C1 [WWQ-03-012]
